Where two headings read alike, the source gives them in different places.
Experiments:
HLA-B*1301 allele [1] = settings: both, human, in vivo
From the text: The samples were peripheral blood taken from human, including case samples, clinical control samples and healthy control samples.
76 Chinese DHS patients (39 for the discovery-phase study, and 37 for the validation-phase study) were included in the study. […] The male-to-female ratio in the patients, aged 38 years old in average, was 1.6:1. […] The diagnosis of DHS was based on the medical history, clinical manifestations and laboratory examinations of the patients.
The clinical control samples of the study included 1034 non-DHS patients (833 for the discovery phase, and 201 for the validation phase).
Genotyping was performed on 39 DHS patients in the case samples and 833 non-DHS patients in the clinical control samples using Illumina-660 chip (Illumina Human 660W-Quad beadchip). A total of 430,276 SNPs from the 39 DHS patients and 833 non-DHS patients were used in data analysis in the discovery phase of Genome-Wide Scan. […]

HLA-B*1301 allele [2] = settings: human, in vivo
From the text: The 454 sequencing platform (Genome Sequencer FLX system developed by Roche 454 Life Sciences) was employed to conduct HLA sorting on 76 DHS patients in the case samples and 1034 non-DHS patients in the clinical control samples, and the sorting results are shown in Table 1.
The HLA-B*1301 heterozygous carriers were at a risk of DHS of ORhet=61×886/10×144=37.53 (confidence level, 0.95; confidence interval (18.80, 74.94)); the HLA-B*1301 homozygous carriers were at a risk of DHS of ORhom=5×886/10×4=110.75 (confidence level, 0.95; confidence interval (25.85, 474.54)).
A recent review regarding the Asian population deduced that the prevalence rate of DHS was 1.4% (Lorenz, Wozel et al. 2012). Based on this prevalence rate, the positive predictive value was 7.9%, the negative predictive value was 99.8%, the positive likelihood ratio was 6.07, and the negative likelihood ratio was 0.1536, upon calculation. According to the positive likelihood ratio of 6.07, the risk of DHS in individuals with the HLA-B*1301 will be raised to 7.9%; and according to the negative likelihood ratio of 0.1536, the incidence of DHS in individuals […] will be decreased from 1.4% to 0.2%.

HLA-B*1301 allele [3] = settings: human, in vivo; remark: listed apart in the source
Protocol: To further verify the correlation of HLA-B*1301 allele, the 454 sequencing platform (Genome Sequencer FLX system developed by Roche 454 Life Sciences) was employed to conduct HLA sorting on another 37 DHS patients in the case samples and another 201 non-DHS patients in the clinical control samples (randomizedly selected from a total of 1089 validation controls). Wherein, PCR amplification was conducted on genomic DNA isolated from the peripheral blood of the samples for the HLA-B*1301 allele using primer pair 1 and primer pair 2, respectively. The primer pair 1 consists of the single-stranded DNA as set forth in SEQ ID No.1 and SEQ ID No.2; and the primer pair 2 consists of the single-stranded DNA as set forth in SEQ ID No.3 and SEQ ID No.4.

[4] = both, human, in vivo
From the text: 76 Chinese DHS patients (39 for the discovery-phase study, and 37 for the validation-phase study) were included in the study. […] The diagnosis of DHS was based on the medical history, clinical manifestations and laboratory examinations of the patients.

## Nc1ccc(S(=O)(=O)c2ccc(N)cc2)cc1 [DDS, 4,4′-diamino diphenyl sulfone]
HLA-B*1301 allele [1]
  OR of DHS for HLA-B*1301: 21.67
HLA-B*1301 allele [2]
  HLA-B*1301 allele carried by DHS patients: 86.8%
  HLA-B*1301 allele carried by non-DHS patients: 14.3%
  risk of DHS in individuals with the HLA-B*1301: 7.9%
HLA-B*1301 allele [3]
  OR of DHS for HLA-B*1301: 23.54
[4]
  patients abnormally increased in the level of serum bilirubin: 35 patients
  patients decreased in the level of hemoglobin: 37 patients
  patients significantly increased in the level of alanine transaminase: 58 patients
  patients significantly increased in the level of aspartate aminotransferase: 49 patients
  skin lesion: exfoliative dermatitis: 38.5%
  skin lesion: maculopapule: 57.7%
  skin lesion: scarlatiniform erythema: 7.7%
  system involvement: abnormal liver function: 74.4%
  system involvement: fever: 83.1%
  system involvement: swollen lymph glands: 34.6%
[4]; po
  skin lesion: oral erosion: 1.3%

Source: patent US9567636B2, “Use of HLA-B*1301 allele” (Shandong Provincial Institute of Dermatology and Venereology, priority 2012, dated 2017)
